# According to paper PMC2947513, “Identification of an Archaeal Presenilin-Like Intramembrane Protease” (PLoS ONE, 2010):
# Target: T1, MCMJR1 (Methanoculleus marisnigri, UniProt A3CWV0)
# T1 construct: gene Memar_1924; full-length; N-terminal His6-SUMO fusion cut off with ULP1; expressed in E. coli Rosetta (DE3) pLysS; detergent-purified; catalytic D162 and D220; eight predicted TMDs
# T1 sequence (A3CWV0 1-301): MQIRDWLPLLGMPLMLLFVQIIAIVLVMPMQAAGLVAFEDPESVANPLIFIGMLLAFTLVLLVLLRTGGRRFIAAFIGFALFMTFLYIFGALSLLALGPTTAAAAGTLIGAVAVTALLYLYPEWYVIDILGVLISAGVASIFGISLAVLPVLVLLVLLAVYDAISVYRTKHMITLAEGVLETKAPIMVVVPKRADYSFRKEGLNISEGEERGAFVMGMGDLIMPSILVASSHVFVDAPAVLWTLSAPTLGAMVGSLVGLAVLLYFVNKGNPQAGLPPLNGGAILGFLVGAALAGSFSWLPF
# Experiment: cleavage of Gurken-TMD (MBP chimera), anti-MBP western blot with densitometry
# Format: biochemical
# Settings: transition-state analog; 0.8 µM enzyme, 2 h pre-incubation at 37 °C, 0.8 µM Gurken-TMD, 8 h; 31C at 10-100 µM; IC50 not given
compound,measurement,value
COC(=O)C(NC(=O)C(CC(C)C)NC(=O)N(Cc1ccccc1)CC(O)C(Cc1ccccc1)NC(=O)OC(C)(C)C)C(C)C (stereo not shown) [31C],complete inhibition of activity,~ 100 µM
